From patent US20230203060A1 (GENFLEET THERAPEUTICS (SHANGHAI) INC., priority 2020, published 2023)
Structures can show the parent of a compound that is named as a salt. Where two headings read alike, the source gives them in different places.

Experiments:
Assay type in all cases: cell-based, human
[1] = system: KRAS G12C mutant NCI-H358 cells; assay: Cell proliferation inhibition experiment, 3D spheroid, CellTiter-Glo, NCI-H358; conditions: read-out: H358 IC50
How it was run: (§1)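 Spheroids grown overnight from 800 H358 or 400 A549 cells were treated for 5 days with serially diluted compound (3.16-fold, 0.1% DMSO, 2% FBS). ATP-based luminescence gave IC50.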

[2] = system: A549 cells (KRAS G12S mutant); assay: Cell proliferation inhibition experiment, 3D spheroid, CellTiter-Glo, A549; conditions: read-out: A549 IC50
How it was run: as §1

[3] = system: KRAS G12C mutant MIA PaCa-2 cells; assay: Cell proliferation inhibition experiment, 3D spheroid, CellTiter-Glo, MIA PaCa-2; conditions: read-out: MIA-PaCa2 IC50
How it was run: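 200 MIA PaCa-2 cells/well grown overnight as 3D spheroids, then exposed to 3.16-fold compound dilutions (0.1% DMSO final) for 5 days. Viability read by CellTiter-Glo luminescence; inhibition calculated against DMSO and medium-only controls, and IC50 fitted by four-parameter model.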

[4] = NCI-H358 (KRAS G12C mutant) 3D spheroid, 5 days with compound, CellTiter-Glo
[5] = A549 (KRAS G12S mutant) 3D spheroid, 5 days with compound, CellTiter-Glo
[6] = 3D cell model in 384-well spheroid plate, 5 days, CellTiter-Glo
[7] = Homo sapiens, NCI-H358, 120 h, NCI-H358 (KRAS G12C mutant) 3D spheroid, 5 days with compound, CellTiter-Glo
[8] = Homo sapiens, A549, 120 h, A549 (KRAS G12S mutant) 3D spheroid, 5 days with compound, CellTiter-Glo
[9] = Homo sapiens, MIA PaCa-2, 120 h, 3D cell model in 384-well spheroid plate, 5 days, CellTiter-Glo
[10] = Homo sapiens, MIA PaCa-2, 120 h

With `C=CC(=O)N1CCN2C(=O)c3c(N4CCN(C)C(C)C4C)nc(-c4c(O)cccc4F)c(Cl)c3OC[C@H]2C1` (stereo partly drawn) [Z308a, (6aR)-8-acryloyl-4-chloro-3-(2-fluoro-6-hydroxyphenyl)-1-(2,3,4-trimethylpiperazin-1-yl)-6,6a,7,8,9,10-hexahydro-12H-pyrazino[2,1-c]pyrido[3,4-f][1,4]oxazepin-12-one] the IC50 [1, 4] was 4.1 nM, the IC50 [2, 5] was 7.1 µM and the IC50 [3, 6] was 1.7 nM.

`C=CC(=O)N1CCN2C(=O)c3c(NC(C)(C)C)nc(-c4c(O)cccc4F)c(Cl)c3OC[C@H]2C1` [Z69, (6aR)-8-acryloyl-1-(tert-butylamino)-4-chloro-3-(2-fluoro-6-hydroxyphenyl)-6,6a,7,8,9,10-hexahydro-12H-pyrazino[2,1-c]pyrido[3,4-f][1,4]oxazepin-12-one] was tested, and the IC50 [1, 7] was 9 nM, the IC50 [2, 8] was > 5 µM and the IC50 [3, 9] was 28 nM.

With `C=CC(=O)N1CCN2C(=O)c3c(N4CC(=O)N(C)CC4C)nc(-c4c(O)cccc4F)c(Cl)c3OC[C@H]2C1` (single isomer, unassigned) [Z221-1] the IC50 [1, 4] was 2.7 nM, the IC50 [2, 8] was > 30 µM and the IC50 [3, 9] was 8.8 nM.

`C=CC(=O)N1CCN2C(=O)c3c(N4CC(=O)N(C)CC4C)nc(-c4c(O)cccc4F)c(Cl)c3OC[C@H]2C1` (single isomer, unassigned) [Z221-2] was tested, and the IC50 [1, 4] was 16.8 nM.

Work on `C=CC(=O)N1CCN2C(=O)c3c(N4C[C@H](O)C[C@@H]4C)nc(-c4c(O)cccc4F)c(Cl)c3OC[C@H]2C1` [Z259, (6aR)-8-acryloyl-4-chloro-3-(2-fluoro-6-hydroxyphenyl)-1-((2S,4R)-4-hydroxy-2-methylpyrrolidin-1-yl)-6,6a,7,8,9,10-hexahydro-12H-pyrazino[2,1-c]pyrido[3,4-f][1,4]oxazepin-12-one] yielded an IC50 [1, 7] of 29 nM.

With `C=CC(=O)N1CCN2C(=O)c3c(N4C[C@H](N(C)C)CC4(C)C)nc(-c4ccccc4)c(Cl)c3OC[C@H]2C1` (single isomer, unassigned) [Z655-2] the IC50 [1, 4] was 18 nM, the IC50 [2, 5] was 2.75 µM and the IC50 [3, 6] was 50.9 nM.

For `C=CC(=O)N1CCN2C(=O)c3c(NC(C)C)nc(-c4c(O)cccc4F)c(Cl)c3OC[C@H]2C1` [Z75, (6aR)-8-acryloyl-4-chloro-1-(isopropylamino)-3-(2-fluoro-6-hydroxyphenyl)-6,6a,7,8,9,10-hexahydro-12H-pyrazino[2,1-c]pyrido[3,4-f][1,4]oxazepin-12-one], the IC50 [1, 7] was 29 nM, the IC50 [2, 8] was > 1 µM and the IC50 [3, 9] was 67 nM.

Compound `C=CC(=O)N1CCN2C(=O)c3c(N4CCNC(C)C4C)nc(-c4c(O)cccc4F)c(Cl)c3OC[C@H]2C1` (stereo partly drawn) [Z308, (6aR)-8-acryloyl-4-chloro-1-(2,3-dimethylpiperazin-1-yl)-3-(2-fluoro-6-hydroxyphenyl)-6,6a,7,8,9, 10-hexahydro-12H-pyrazino[2,1-c]pyrido[3,4-f][1,4]oxazepin-12-one] has an IC50 [1, 7] of 30 nM and an IC50 [3, 9] of 34 nM.

For `C=CC(=O)N1CCN2C(=O)c3c(N4CC(N(C)CC(F)F)CC4(C)C)nc(-c4ccccc4F)c(Cl)c3OC[C@H]2C1` (some centres unmarked) [Z659], the IC50 [1, 4] was 1.8 nM, the IC50 [2, 5] was 5.46 µM and the IC50 [3, 6] was 9.3 nM.

For `C=CC(=O)N1CCN2C(=O)c3c(OC4CCN(C)CC4)nc(-c4c(O)cccc4F)c(Cl)c3OC[C@H]2C1` [Z61, (6aR)-8-acryloyl-4-chloro-3-(2-fluoro-6-hydroxyphenyl)-1-((1-methylpiperidin-4-yl)oxy)-6,6a,7,8,9,10-hexahydro-12H-pyrazino[2,1-c]pyrido[3,4-f][1,4]oxazepin-12-one], the IC50 [1, 7] was 33 nM, the IC50 [2, 8] was > 30 µM and the IC50 [3, 9] was 26 nM.

In the case of `C=CC(=O)N1CCN2C(=O)c3c(N4CCN(CC)C[C@@H]4C)nc(-c4c(O)cccc4F)c(Cl)c3OC[C@H]2C1` [Z236], the IC50 ([1]; Homo sapiens, NCI-H358, 120 h) is reported as 5.8 nM, the IC50 ([2]; Homo sapiens, A549, 120 h) is reported as 9.58 µM and the IC50 [3, 10] is reported as 7.9 nM.

`C=CC(=O)N1CCN2C(=O)c3c(N4C[C@@H](O)C[C@@H]4C)nc(-c4c(O)cccc4F)c(Cl)c3OC[C@H]2C1` [Z260, (6aR)-8-acryloyl-4-chloro-3-(2-fluoro-6-hydroxyphenyl)-1-((2S,4S)-4-hydroxy-2-methylpyrrolidin-1-yl)-6,6a,7,8,9,10-hexahydro-12H-pyrazino[2,1-c]pyrido[3,4-f][1,4]oxazepin-12-one] was tested, and the IC50 [1, 7] was 5 nM, the IC50 [2, 8] was 27.8 µM and the IC50 [3, 9] was 4.4 nM.

With `C=CC(=O)N1CCN2C(=O)c3c(N(C)c4c(C)ccnc4C(C)C)nc(-c4c(O)cccc4F)c(Cl)c3OC[C@H]2C1` [Z6, (6aR)-8-acryloyl-4-chloro-3-(2-fluoro-6-hydroxyphenyl)-1-((2-isopropyl-4-methylpyridin-3-yl)(methyl)amino)-6,6a,7,8,9,10-hexahydro-12H-pyrazino[2,1-c]pyrido[3,4-f][1,4]oxazepin-12-one] the IC50 [1, 7] was 7 nM, the IC50 [2, 8] was > 30 µM and the IC50 [3, 9] was 17 nM.

For `C=CC(=O)N1CCN2C(=O)c3c(N4C[C@H](O)CC4(C)C)nc(-c4c(O)cccc4F)c(Cl)c3OC[C@H]2C1` (single isomer, unassigned) [Z82], the IC50 [1, 7] was 11 nM and the IC50 [2, 8] was > 1 µM.

`C=CC(=O)N1CCN2C(=O)c3c(N4CC(N5CCOCC5)CC4(C)C)nc(-c4ccccc4F)c(Cl)c3OC[C@H]2C1` (single isomer, unassigned) [Z468-2] showed an IC50 [1, 4] of 5 nM, an IC50 [2, 5] of 4.56 µM and an IC50 [3, 6] of 12 nM.

With `C=CC(=O)N1CCN2C(=O)c3c(C4NCCN5C(=O)CCC45C)nc(-c4c(O)cccc4F)c(Cl)c3OC[C@H]2C1` (stereo partly drawn) [Z337, (6aR)-8-acryloyl-4-chloro-3-(2-fluoro-6-hydroxyphenyl)-1-(8a-methylhexahydropyrrolo[1,2-a]pyrazin-6 (2H)-one-1-yl)-6,6a,7,8,9,10-hexahydro-12H-pyrazino[2,1-c]pyrido[3,4-f][1,4]oxazepin-12-one] the IC50 [1, 4] was 15 nM, the IC50 [2, 5] was > 30 µM and the IC50 [3, 6] was 16 nM.

For `C=CC(=O)N1CCN2C(=O)c3c(N4C[C@H](NC)CC4(C)C)nc(-c4ccccc4F)c(Cl)c3OC[C@H]2C1` (single isomer, unassigned) [Z661-2], the IC50 [3, 9] was 4 nM.

With `C=CC(=O)N1CCN2C(=O)c3c(Nc4c(C)ccnc4C(C)C)nc(-c4c(O)cccc4F)c(Cl)c3OC[C@H]2C1` [Z5, (6aR)-8-acryloyl-4-chloro-3-(2-fluoro-6-hydroxyphenyl)-1-((2-isopropyl-4-methylpyridin-3-yl)amino)-6,6a,7,8,9,10-hexahydro-12H-pyrazino[2,1-c]pyrido[3,4-f][1,4]oxazepin-12-one] the IC50 [1, 7] was 31 nM, the IC50 [2, 8] was 4.68 µM and the IC50 [3, 9] was 143 nM.

For `C=CC(=O)N1CCN2C(=O)c3c(N4CCN(CCO)C[C@@H]4C)nc(-c4c(O)cccc4F)c(Cl)c3OC[C@H]2C1` [Z257, (6aR)-8-acryloyl-4-chloro-3-(2-fluoro-6-hydroxyphenyl)-1-((S)-4-(2-hydroxyethyl)-2-methylpiperazin-1-yl)-6,6a,7 ,8,9,10-hexahydro-12H-pyrazino[2,1-c]pyrido[3,4-f][1,4]oxazepin-12-one], the IC50 [1, 7] was 10.2 nM, the IC50 [2, 8] was > 30 µM and the IC50 [3, 9] was 11.3 nM.

Compound `C=CC(=O)N1CCN2C(=O)c3c(N4CC(=O)N(C)CC4C)nc(-c4c(O)cccc4F)c(Cl)c3OC[C@H]2C1` (stereo partly drawn) [Z221, (6aR)-8-acryloyl-4-chloro-1-(2,4-dimethyl-5-oxopiperazin-1-yl)-3-(2-fluoro-6-hydroxyphenyl)-6,6a,7,8,9,10-hexahydro-12H-pyrazino[2,1-c]pyrido[3,4-f][1,4]oxazepin-12-one] has an IC50 [1, 7] of 3 nM, an IC50 [2, 8] of 20.1 µM and an IC50 [3, 9] of 4.5 nM.

Work on `C=CC(=O)N1CCN2C(=O)c3c(N4CCN(C)C[C@@H]4C)nc(-c4c(O)cccc4Cl)c(Cl)c3OC[C@H]2C1` (single isomer, unassigned) [Z455-1] yielded an IC50 [1, 4] of 45.2 nM, an IC50 [2, 5] of 4.18 µM and an IC50 [3, 6] of 86.9 nM.

`C=CC(=O)N1CCN2C(=O)c3c(N4CC(N(C)C5COC5)CC4(C)C)nc(-c4c(O)cccc4F)c(Cl)c3OC[C@H]2C1` (single isomer, unassigned) [Z331-2] gave an IC50 [1, 4] of 1.1 nM, an IC50 [2, 5] of 9.32 µM and an IC50 [3, 6] of 1.3 nM.

`C=CC(=O)N1CCN2C(=O)c3c(N4C[C@H](N(C)CCF)CC4(C)C)nc(-c4ccccc4F)c(Cl)c3OC[C@H]2C1` (single isomer, unassigned) [Z660-2] gave an IC50 [1, 4] of 10.8 nM, an IC50 [2, 5] of 9.08 µM and an IC50 [3, 6] of 47 nM.

For `C=CC(=O)N1CCN2C(=O)c3c(N4C[C@@H](O)CC4(C)C)nc(-c4c(O)cccc4F)c(Cl)c3OC[C@H]2C1` (single isomer, unassigned) [Z81], the IC50 [1, 7] was 1 nM and the IC50 [2, 8] was > 1 µM.

`C=CC(=O)N1CCN2C(=O)c3c(N4CCN(C)C(C)(C)C4)nc(-c4ccccc4F)c(Cl)c3OC[C@H]2C1` [Z463, (R)-8-acryloyl-4-chloro-3-(2-fluorophenyl)-1-(3,3,4-trimethylpiperazin-1-yl)-6,6a,7,8,9,10-hexahydro-12H-pyrazino[2,1-c]pyrido[3,4-f][1,4]oxazepin-12-one, formate] showed an IC50 ([1]; Homo sapiens, NCI-H358, 120 h) of 39 nM and an IC50 [3, 10] of 59 nM.
